The values below come from patent US10961189B2, “Spiro-lactam NMDA receptor modulators and uses thereof” (Aptinyx Inc., priority 2016, dated 2021).

Where two headings read alike, the source gives them in different places. Bounds are passed on as bounds.

In one data set the target is T1, NMDAR2B (Homo sapiens, UniProt Q13224).
T1 construct: expressed in transfected cells; host or cells: HEK cells (membrane extract)
Put plainly: [3H]MK-801 binding in NMDAR expressing HEK cell membranes (facilitation of NMDAR activation). Type of data set: biochemical. As to conditions: 50 μM glutamate; for EC50: read-out: B: log EC50 (converted); for Emax: 0.25 h, read-out: A: % maximal [3H]MK-801 binding relative to 1 mM glycine. Summed up: (§1)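 HEK membranes (300 μg) expressing the NMDAR subunit were preincubated 15 min at 25 °C with 50 μM glutamate and compound ([…]−1×10^−7M), then with 0.3 μCi [3H]MK-801 for 15 min under nonequilibrium conditions and filtered. Baseline-subtracted DPM was expressed as % of 1 mM glycine, and EC50 and % maximal binding came from three-parameter curve fits.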

A further data set addresses T2, NMDAR2A (Homo sapiens, UniProt Q12879).
T2 construct: expressed in transfected cells; host or cells: HEK cells (membrane extract)
The data set is described as above. Type of data set: biochemical. The settings on record: 50 μM glutamate; for Emax: 0.25 h, read-out: A: % maximal [3H]MK-801 binding relative to 1 mM glycine; for EC50: read-out: B: log EC50 (converted). In a few lines: as §1

Data set [1] in a line: oral pharmacokinetics (plasma, brain, CSF). Type of data set: in vivo, Sprague Dawley rats. As to conditions: rat, per os 10 mg/kg; for AUC(0-t) / bioavailability / Tmax / Cmax: Sprague-Dawley, plasma, po; for Tmax: normal saline (* in 5% NMP, 5% Solutol HS, 90% normal saline), read-out: Tmax; for Cmax: read-out: Cmax.
Description: In another experiment, Sprague Dawley rats were dosed per os using a normal saline formulation containing 10 mg/kg of the compounds identified in the table below (except for the compounds marked with an asterisk (“*”) that were delivered in 5% NMP, 5% Solutol® HS and 90% normal saline formulation). Plasma, brain, and CSF samples were analyzed at various time points over a 24 hour period.
A further data set in a line: IV pharmacokinetics. The format is in vivo, Sprague Dawley rats. The settings on record: rat, normal saline (* in 5% NMP, 5% Solutol HS, 90% normal saline); for Vd: read-out: Vss. From the text:
The table below summarizes the results of the IV pharmacokinetics.

The mark [2] stands for this setting: Sprague-Dawley, in vivo, iv, 2 mg/kg.
The mark [3] stands for this setting: Sprague-Dawley, in vivo, iv, 2 mg/kg, read-out: C0.
The mark [4] stands for this setting: Sprague-Dawley, in vivo, intravenous 2 mg/kg.

T1 sequence (Q13224 27-1484, species assumed, other chains not shown): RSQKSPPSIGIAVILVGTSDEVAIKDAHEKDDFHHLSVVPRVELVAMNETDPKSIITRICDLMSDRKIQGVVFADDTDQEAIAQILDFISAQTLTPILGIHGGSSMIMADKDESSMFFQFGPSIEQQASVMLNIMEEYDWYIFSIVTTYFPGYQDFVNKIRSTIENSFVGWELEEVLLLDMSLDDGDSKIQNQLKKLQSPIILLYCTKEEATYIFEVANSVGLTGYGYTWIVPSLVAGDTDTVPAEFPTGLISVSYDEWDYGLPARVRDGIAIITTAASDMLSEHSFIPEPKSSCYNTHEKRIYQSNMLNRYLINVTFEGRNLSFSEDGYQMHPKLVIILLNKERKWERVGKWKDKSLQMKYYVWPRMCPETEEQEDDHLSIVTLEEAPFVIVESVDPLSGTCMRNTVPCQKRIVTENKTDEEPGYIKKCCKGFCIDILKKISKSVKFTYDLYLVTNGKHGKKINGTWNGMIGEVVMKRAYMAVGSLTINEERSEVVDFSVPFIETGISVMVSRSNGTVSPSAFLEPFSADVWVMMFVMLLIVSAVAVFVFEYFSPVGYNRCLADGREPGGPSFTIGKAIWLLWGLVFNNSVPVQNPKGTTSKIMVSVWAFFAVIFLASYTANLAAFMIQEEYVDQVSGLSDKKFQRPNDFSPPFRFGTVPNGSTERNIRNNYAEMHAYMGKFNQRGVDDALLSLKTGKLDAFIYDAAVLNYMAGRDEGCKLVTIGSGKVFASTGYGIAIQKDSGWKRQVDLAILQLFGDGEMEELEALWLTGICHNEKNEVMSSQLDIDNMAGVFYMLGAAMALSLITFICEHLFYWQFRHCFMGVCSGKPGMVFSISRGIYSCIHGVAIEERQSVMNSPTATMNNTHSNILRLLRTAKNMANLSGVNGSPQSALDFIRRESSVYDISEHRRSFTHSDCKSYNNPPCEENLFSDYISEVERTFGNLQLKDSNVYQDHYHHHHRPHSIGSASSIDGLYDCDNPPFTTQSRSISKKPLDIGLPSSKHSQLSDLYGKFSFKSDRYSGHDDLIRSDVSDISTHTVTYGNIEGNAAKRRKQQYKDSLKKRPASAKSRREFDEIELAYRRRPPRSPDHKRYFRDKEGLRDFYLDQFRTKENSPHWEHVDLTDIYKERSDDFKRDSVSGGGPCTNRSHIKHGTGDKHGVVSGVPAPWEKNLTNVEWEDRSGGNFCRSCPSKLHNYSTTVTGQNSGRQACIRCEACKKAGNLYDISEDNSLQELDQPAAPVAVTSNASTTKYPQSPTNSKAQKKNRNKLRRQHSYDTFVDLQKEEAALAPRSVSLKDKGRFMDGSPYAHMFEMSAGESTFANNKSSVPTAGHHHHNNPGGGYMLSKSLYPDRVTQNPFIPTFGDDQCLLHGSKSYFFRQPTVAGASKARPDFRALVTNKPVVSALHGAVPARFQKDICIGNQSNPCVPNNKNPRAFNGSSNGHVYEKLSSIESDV
T2 sequence (Q12879 23-1464, species assumed, other chains not shown): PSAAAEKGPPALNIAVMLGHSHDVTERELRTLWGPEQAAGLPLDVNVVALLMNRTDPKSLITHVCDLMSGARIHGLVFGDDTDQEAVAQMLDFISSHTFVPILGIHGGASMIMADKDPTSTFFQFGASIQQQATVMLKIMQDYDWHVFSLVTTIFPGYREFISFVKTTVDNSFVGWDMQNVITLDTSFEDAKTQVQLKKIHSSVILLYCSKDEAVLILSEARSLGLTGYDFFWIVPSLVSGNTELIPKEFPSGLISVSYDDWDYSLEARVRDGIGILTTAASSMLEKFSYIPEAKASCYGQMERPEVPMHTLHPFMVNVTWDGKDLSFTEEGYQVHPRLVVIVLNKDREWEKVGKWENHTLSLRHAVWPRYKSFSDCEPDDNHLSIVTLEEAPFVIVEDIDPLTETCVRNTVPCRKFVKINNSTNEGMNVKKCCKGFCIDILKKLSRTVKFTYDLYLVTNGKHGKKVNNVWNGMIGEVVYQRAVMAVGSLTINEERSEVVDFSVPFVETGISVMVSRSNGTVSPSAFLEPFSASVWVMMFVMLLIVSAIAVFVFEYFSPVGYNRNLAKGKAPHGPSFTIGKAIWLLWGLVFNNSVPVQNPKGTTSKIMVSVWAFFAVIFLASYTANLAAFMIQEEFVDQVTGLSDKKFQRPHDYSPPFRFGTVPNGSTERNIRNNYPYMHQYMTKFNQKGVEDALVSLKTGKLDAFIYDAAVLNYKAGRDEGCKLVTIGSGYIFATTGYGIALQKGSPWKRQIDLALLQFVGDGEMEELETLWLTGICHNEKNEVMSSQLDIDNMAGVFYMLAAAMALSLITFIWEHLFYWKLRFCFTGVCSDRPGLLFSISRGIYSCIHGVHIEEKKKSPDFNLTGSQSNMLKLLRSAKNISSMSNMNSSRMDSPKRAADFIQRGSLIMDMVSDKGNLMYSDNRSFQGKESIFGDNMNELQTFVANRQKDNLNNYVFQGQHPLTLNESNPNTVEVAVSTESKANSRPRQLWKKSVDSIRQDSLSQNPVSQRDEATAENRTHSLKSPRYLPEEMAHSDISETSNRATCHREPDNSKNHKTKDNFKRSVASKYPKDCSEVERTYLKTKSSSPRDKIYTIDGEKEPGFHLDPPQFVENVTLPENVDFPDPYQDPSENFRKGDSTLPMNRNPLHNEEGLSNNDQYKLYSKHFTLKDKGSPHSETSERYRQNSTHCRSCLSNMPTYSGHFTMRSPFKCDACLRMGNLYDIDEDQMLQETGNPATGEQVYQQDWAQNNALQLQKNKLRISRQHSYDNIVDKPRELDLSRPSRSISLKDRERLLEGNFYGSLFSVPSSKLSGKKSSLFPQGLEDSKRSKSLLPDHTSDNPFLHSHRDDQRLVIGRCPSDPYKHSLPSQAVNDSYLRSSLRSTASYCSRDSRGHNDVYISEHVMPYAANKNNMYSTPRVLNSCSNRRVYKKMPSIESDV

Broadly, the EC50 is the concentration at which the effect is half-maximal. Broadly, the AUC(0-t) is the area under the concentration-time curve up to a stated or last time point. Lower therefore signals low exposure. By bioavailability is commonly meant the share of a dose that reaches the circulation, judged against a reference dose that is usually intravenous. A higher bioavailability goes with good availability. As usually defined, the Tmax is the time at which the peak concentration occurs. In general, Cmax refers to the highest concentration seen after dosing. By half-life is commonly meant how long it takes for the measured level to halve. Higher therefore signals slow decline. Regarding `CC1CCC2(CC1)CNC2=O` (racemic) [Compound AD, 7-methyl-2-azaspiro[3.5]nonan-1-one], on NMDAR2B, the 50% effective concentration (EC50) was no less than 1 nM and the Emax is less than 100%. In addition, the Emax on NMDAR2A was 0%. Moreover, in data set [1] (10 mg/kg), the area under the curve AUC(0-t) was 4580 ng·h/mL, the bioavailability was found to be 67%, the Tmax is 25.2 min and the Cmax was 2030 ng/mL. In data set [1], the “CSF Cmax” value came to 1009.2 ng/mL and the “Brain Cmax” value was 1832.2 ng/mL. In “IV pharmacokinetics” (setting [2]), the AUC(0-t) stood at 1360 ng·h/mL, the half-life is 47.4 min and the Vd came to 0.97 L/kg. Also, the C0 in “IV pharmacokinetics” (setting [3]) is 2060 ng/mL. Besides, the CI in “IV pharmacokinetics” (intravenous 2 mg/kg) amounted to 24.57 mL/min/kg.

As to `COc1ccc(CN2CC3(CCC(O)CC3)C2=O)cc1` (stereo not shown) [AG], at NMDAR2B, the half-maximal effective concentration (EC50) is less than 1 nM and the Emax is less than 100%. Moreover, at NMDAR2A, the EC50 was no less than 1 nM and the Emax was less than 100%. Besides, in data set [1], the bioavailability is 41%, the time of peak concentration (Tmax) was 15 min, the AUC(0-t) turned out to be 1330 ng·h/mL and the peak concentration (Cmax) turned out to be 1930 ng/mL. In addition, in data set [1], the “CSF Cmax” value is given as 217.3 ng/mL and the “Brain Cmax” value is on record as 307.49 ng/mL. In the data set “IV pharmacokinetics” (setting [4]), the AUC(0-t) stood at 650 ng·h/mL, the half-life is 24 min and the Vd came to 0.7 L/kg. The C0 in the data set “IV pharmacokinetics” (Sprague-Dawley, in vivo, intravenous 2 mg/kg, read-out: C0) turned out to be 2650 ng/mL. Besides, the CI in “IV pharmacokinetics” (intravenous 2 mg/kg) is recorded as 51.36 mL/min/kg.

Take `O=C1NCC12CCC(O)CC2` (stereo not shown) [AL, 7-hydroxy-2-azaspiro[3.5]nonan-1-one]: at NMDAR2B, the “A: % maximal [3H]MK-801 binding relative to 1 mM glycine” value was “+ (<100%=+)” and the concentration giving a half-maximal response (EC50) was less than 1 nM. Moreover, the “A: % maximal [3H]MK-801 binding relative to 1 mM glycine” value on NMDAR2A was “− (−=0)”. In addition, in data set [1] (10 mg/kg), the exposure AUC(0-t) is 19300 ng·h/mL, the bioavailability was determined as 97%, the Tmax came to 60 min and the Cmax was 9480 ng/mL. In addition, in data set [1], the “CSF Cmax” value amounted to 7532 ng/mL and the “Brain Cmax” value is given as 3672 ng/mL. Besides, in “IV pharmacokinetics” (setting [2]), the AUC(0-t) was 6220 ng·h/mL, the half-life is 224 min and the Vd is 0.83 L/kg. Also, the C0 in “IV pharmacokinetics” (setting [3]) worked out at 3990 ng/mL. In addition, the CI in the data set “IV pharmacokinetics” (intravenous 2 mg/kg) stood at 5.4 mL/min/kg.

One may read the Vss as the apparent volume that relates the amount in the body to the concentration in plasma or blood. A low value points to little distribution into tissue. As for `C[C@@H](O)[C@H](NC1CCC2(CC1)CNC2=O)C(N)=O` (single isomer, unassigned) [AP], at NMDAR2B, the EC50 is less than 1 nM and the Emax is less than 100%. For the same compound, on NMDAR2A, the EC50 is less than 1 nM and the Emax is less than 100%. In addition, in data set [1] (10 mg/kg), the AUC(0-t) was 2050 ng·h/mL, the bioavailability came to 15%, the time to peak (Tmax) was determined as 120 min and the Cmax stood at 625 ng/mL. In addition, in data set [1], the “CSF Cmax” value stood at 80.46 ng/mL and the “Brain Cmax” value came to 0 ng/mL. In “IV pharmacokinetics” (intravenous 2 mg/kg, 2 mg/kg), this compound displayed an AUClast of 2941 ng·h/mL, a C0 of 6420.4 ng/mL, a CI of 11.21 mL/min/kg and a T1/2 of 2.77 h. This compound also came in with a Vss in the data set “IV pharmacokinetics” (intravenous 2 mg/kg, 2 mg/kg) of 0.92 L/kg.

`O=C1NCC12CCC(OCc1ccccc1)CC2` (single isomer, unassigned) [AI, 7-(benzyloxy)-2-azaspiro[3.5]nonan-1-one]: on NMDAR2B, the EC50 is less than 1 nM and the Emax is less than 100%. On NMDAR2A, the EC50 was less than 1 nM and the Emax is less than 100%. Also, in data set [1] (10 mg/kg), the exposure AUC(0-t) was determined as 5900 ng·h/mL, the bioavailability turned out to be 94%, the Tmax was 30 min and the maximum concentration (Cmax) came out at 3970 ng/mL. Besides, in data set [1], the “CSF Cmax” value was found to be 269.17 ng/mL and the “Brain Cmax” value was found to be 1087.9 ng/mL. Moreover, in the data set “IV pharmacokinetics” (setting [2]), the exposure AUC(0-t) came out at 1260 ng·h/mL, the half-life is 82.2 min and the Vd was found to be 0.75 L/kg. Besides, the C0 in “IV pharmacokinetics” (setting [3]) came to 4330 ng/mL. This compound also yielded a CI in the data set “IV pharmacokinetics” (intravenous 2 mg/kg) of 26.19 mL/min/kg.
